The values that follow come from the supplement of paper PMC8967900.
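Note: ALL cell lines in 384-well plates, five doses spanning 10,000-fold, each plate scaled between vehicle and 100 µmol/L benzalkonium chloride controls, sDSS an adapted area-under-curve metric.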

In one experiment the test system is ALL-PO. Kind of experiment: selective drug sensitivity score (sDSS, relative to normal bone marrow) (sDSS (score)); higher = more potent and effective on the cell line relative to normal bone marrow cells. The settings on record: 72 h.
As for `C1=N/C2=N/c3ccc(OCCN4CCCC4)c(c3)COC/C=C/COCc3cccc(c3)C(=C1)N2` [Pacritinib] (top concentration 10000 nM), the “selective drug sensitivity score” value was -0.4.

Turning to `Cc1[nH]c2ccccc2c1CCNCc1ccc(/C=C/C(=O)NO)cc1` [Panobinostat] (top concentration 1000 nM), the “selective drug sensitivity score” value was 6.14.

As to `Cc1ccc(Nc2nccc(N(C)c3ccc4c(C)n(C)nc4c3)n2)cc1S(N)(=O)=O` [Pazopanib] (top concentration 10000 nM), the “selective drug sensitivity score” value is -1.06.

`Nc1nc2[nH]cc(CCc3ccc(C(=O)N[C@@H](CCC(=O)O)C(=O)O)cc3)c2c(=O)[nH]1` [Pemetrexed] (top concentration 10000 nM): the “selective drug sensitivity score” value was 30.9.

For the compound `Cc1ccc(C(=O)Nc2ccc(CN3CCN(C)CC3)c(C(F)(F)F)c2)cc1C#Cc1cnc2cccnn12` [Ponatinib] (top concentration 1000 nM), the “selective drug sensitivity score” value worked out at 14.1.

For `C[C@]12C=CC(=O)C=C1CC[C@@H]1[C@@H]2[C@@H](O)C[C@@]2(C)[C@H]1CC[C@]2(O)C(=O)CO` [Prednisolone] (top concentration 10000 nM), the “selective drug sensitivity score” value was 28.9.

Regarding `CC(C)(C)c1cc(NC(=O)Nc2ccc(-c3cn4c(n3)sc3cc(OCCN5CCOCC5)ccc34)cc2)no1` [Quizartinib] (top concentration 1000 nM), the “selective drug sensitivity score” value came out at 14.1.

Regarding `Nc1cc(F)ccc1NC(=O)/C=C/c1cnn(C/C=C/c2ccccc2)c1` [RGFP966] (top concentration 10000 nM), the “selective drug sensitivity score” value is 3.64.

For `CNC(=O)c1cc(Oc2ccc(NC(=O)Nc3ccc(Cl)c(C(F)(F)F)c3)c(F)c2)ccn1` [Regorafenib] (top concentration 10000 nM), the “selective drug sensitivity score” value stood at 7.14.

Another experiment has as its system PEER. Described as above. The settings on record: 72 h.
For `C1=N/C2=N/c3ccc(OCCN4CCCC4)c(c3)COC/C=C/COCc3cccc(c3)C(=C1)N2` [Pacritinib] (top concentration 10000 nM), the “selective drug sensitivity score” value is -5.6.

`Cc1[nH]c2ccccc2c1CCNCc1ccc(/C=C/C(=O)NO)cc1` [Panobinostat] (top concentration 1000 nM): the “selective drug sensitivity score” value was found to be 4.34.

For `Cc1ccc(Nc2nccc(N(C)c3ccc4c(C)n(C)nc4c3)n2)cc1S(N)(=O)=O` [Pazopanib] (top concentration 10000 nM), the “selective drug sensitivity score” value worked out at 2.84.

Regarding `Nc1nc2[nH]cc(CCc3ccc(C(=O)N[C@@H](CCC(=O)O)C(=O)O)cc3)c2c(=O)[nH]1` [Pemetrexed] (top concentration 10000 nM), the “selective drug sensitivity score” value turned out to be 15.5.

For the compound `Cc1ccc(C(=O)Nc2ccc(CN3CCN(C)CC3)c(C(F)(F)F)c2)cc1C#Cc1cnc2cccnn12` [Ponatinib] (top concentration 1000 nM), the “selective drug sensitivity score” value is 18.6.

As to `C[C@]12C=CC(=O)C=C1CC[C@@H]1[C@@H]2[C@@H](O)C[C@@]2(C)[C@H]1CC[C@]2(O)C(=O)CO` [Prednisolone] (top concentration 10000 nM), the “selective drug sensitivity score” value was -3.

Take `CC(C)(C)c1cc(NC(=O)Nc2ccc(-c3cn4c(n3)sc3cc(OCCN5CCOCC5)ccc34)cc2)no1` [Quizartinib] (top concentration 1000 nM): the “selective drug sensitivity score” value was -0.02.

`Nc1cc(F)ccc1NC(=O)/C=C/c1cnn(C/C=C/c2ccccc2)c1` [RGFP966] (top concentration 10000 nM): the “selective drug sensitivity score” value is 10.2.

As for `CNC(=O)c1cc(Oc2ccc(NC(=O)Nc3ccc(Cl)c(C(F)(F)F)c3)c(F)c2)ccn1` [Regorafenib] (top concentration 10000 nM), the “selective drug sensitivity score” value was 7.64.

For another experiment, the system named is COG-LL-317. The description is as above. The following applies: 72 h.
For `C1=N/C2=N/c3ccc(OCCN4CCCC4)c(c3)COC/C=C/COCc3cccc(c3)C(=C1)N2` [Pacritinib] (top concentration 10000 nM), the “selective drug sensitivity score” value was -8.3.

Take `Cc1[nH]c2ccccc2c1CCNCc1ccc(/C=C/C(=O)NO)cc1` [Panobinostat] (top concentration 1000 nM): the “selective drug sensitivity score” value worked out at 6.34.

Take `Cc1ccc(Nc2nccc(N(C)c3ccc4c(C)n(C)nc4c3)n2)cc1S(N)(=O)=O` [Pazopanib] (top concentration 10000 nM): the “selective drug sensitivity score” value is -1.26.

Consider `Nc1nc2[nH]cc(CCc3ccc(C(=O)N[C@@H](CCC(=O)O)C(=O)O)cc3)c2c(=O)[nH]1` [Pemetrexed] (top concentration 10000 nM), for which the “selective drug sensitivity score” value was 25.1.

For the compound `Cc1ccc(C(=O)Nc2ccc(CN3CCN(C)CC3)c(C(F)(F)F)c2)cc1C#Cc1cnc2cccnn12` [Ponatinib] (top concentration 1000 nM), the “selective drug sensitivity score” value was -1.98.

For `C[C@]12C=CC(=O)C=C1CC[C@@H]1[C@@H]2[C@@H](O)C[C@@]2(C)[C@H]1CC[C@]2(O)C(=O)CO` [Prednisolone] (top concentration 10000 nM), the “selective drug sensitivity score” value was found to be 2.6.

In the case of `CC(C)(C)c1cc(NC(=O)Nc2ccc(-c3cn4c(n3)sc3cc(OCCN5CCOCC5)ccc34)cc2)no1` [Quizartinib] (top concentration 1000 nM), the “selective drug sensitivity score” value was -0.02.

For the compound `Nc1cc(F)ccc1NC(=O)/C=C/c1cnn(C/C=C/c2ccccc2)c1` [RGFP966] (top concentration 10000 nM), the “selective drug sensitivity score” value turned out to be 16.6.

Turning to `CNC(=O)c1cc(Oc2ccc(NC(=O)Nc3ccc(Cl)c(C(F)(F)F)c3)c(F)c2)ccn1` [Regorafenib] (top concentration 10000 nM), the “selective drug sensitivity score” value turned out to be 2.54.

The next experiment concerns TANOUE. The description is as above. The settings on record: 72 h.
Consider `C1=N/C2=N/c3ccc(OCCN4CCCC4)c(c3)COC/C=C/COCc3cccc(c3)C(=C1)N2` [Pacritinib] (top concentration 10000 nM), for which the “selective drug sensitivity score” value is -8.4.

As for `Cc1[nH]c2ccccc2c1CCNCc1ccc(/C=C/C(=O)NO)cc1` [Panobinostat] (top concentration 1000 nM), the “selective drug sensitivity score” value was -6.56.

On to `Cc1ccc(Nc2nccc(N(C)c3ccc4c(C)n(C)nc4c3)n2)cc1S(N)(=O)=O` [Pazopanib] (top concentration 10000 nM), for which the “selective drug sensitivity score” value was -1.26.

In the case of `Nc1nc2[nH]cc(CCc3ccc(C(=O)N[C@@H](CCC(=O)O)C(=O)O)cc3)c2c(=O)[nH]1` [Pemetrexed] (top concentration 10000 nM), the “selective drug sensitivity score” value was -0.72.

Regarding `Cc1ccc(C(=O)Nc2ccc(CN3CCN(C)CC3)c(C(F)(F)F)c2)cc1C#Cc1cnc2cccnn12` [Ponatinib] (top concentration 1000 nM), the “selective drug sensitivity score” value was -3.78.

As to `C[C@]12C=CC(=O)C=C1CC[C@@H]1[C@@H]2[C@@H](O)C[C@@]2(C)[C@H]1CC[C@]2(O)C(=O)CO` [Prednisolone] (top concentration 10000 nM), the “selective drug sensitivity score” value was -2.8.

On to `CC(C)(C)c1cc(NC(=O)Nc2ccc(-c3cn4c(n3)sc3cc(OCCN5CCOCC5)ccc34)cc2)no1` [Quizartinib] (top concentration 1000 nM), for which the “selective drug sensitivity score” value is -1.52.

In the case of `Nc1cc(F)ccc1NC(=O)/C=C/c1cnn(C/C=C/c2ccccc2)c1` [RGFP966] (top concentration 10000 nM), the “selective drug sensitivity score” value was -0.26.

Regarding `CNC(=O)c1cc(Oc2ccc(NC(=O)Nc3ccc(Cl)c(C(F)(F)F)c3)c(F)c2)ccn1` [Regorafenib] (top concentration 10000 nM), the “selective drug sensitivity score” value is 4.44.

The next experiment deals with REH. The description is as above. The settings on record: 72 h.
On to `C1=N/C2=N/c3ccc(OCCN4CCCC4)c(c3)COC/C=C/COCc3cccc(c3)C(=C1)N2` [Pacritinib] (top concentration 10000 nM), for which the “selective drug sensitivity score” value was -3.2.

`Cc1[nH]c2ccccc2c1CCNCc1ccc(/C=C/C(=O)NO)cc1` [Panobinostat] (top concentration 1000 nM): the “selective drug sensitivity score” value amounted to 0.44.

With `Cc1ccc(Nc2nccc(N(C)c3ccc4c(C)n(C)nc4c3)n2)cc1S(N)(=O)=O` [Pazopanib] (top concentration 10000 nM), the “selective drug sensitivity score” value was 4.14.

For the compound `Nc1nc2[nH]cc(CCc3ccc(C(=O)N[C@@H](CCC(=O)O)C(=O)O)cc3)c2c(=O)[nH]1` [Pemetrexed] (top concentration 10000 nM), the “selective drug sensitivity score” value amounted to 22.1.

On to `Cc1ccc(C(=O)Nc2ccc(CN3CCN(C)CC3)c(C(F)(F)F)c2)cc1C#Cc1cnc2cccnn12` [Ponatinib] (top concentration 1000 nM), for which the “selective drug sensitivity score” value stood at 2.62.

Take `C[C@]12C=CC(=O)C=C1CC[C@@H]1[C@@H]2[C@@H](O)C[C@@]2(C)[C@H]1CC[C@]2(O)C(=O)CO` [Prednisolone] (top concentration 10000 nM): the “selective drug sensitivity score” value is -3.

Turning to `CC(C)(C)c1cc(NC(=O)Nc2ccc(-c3cn4c(n3)sc3cc(OCCN5CCOCC5)ccc34)cc2)no1` [Quizartinib] (top concentration 1000 nM), the “selective drug sensitivity score” value is -1.52.

For the compound `Nc1cc(F)ccc1NC(=O)/C=C/c1cnn(C/C=C/c2ccccc2)c1` [RGFP966] (top concentration 10000 nM), the “selective drug sensitivity score” value was 17.1.

For the compound `CNC(=O)c1cc(Oc2ccc(NC(=O)Nc3ccc(Cl)c(C(F)(F)F)c3)c(F)c2)ccn1` [Regorafenib] (top concentration 10000 nM), the “selective drug sensitivity score” value was found to be 4.44.
